Reference: patent US5096922A, “Macrocyclic antibodies” (Gesellschaft fur Biotechnologische Forschung mbH, priority 1985, dated 1992)

Experiments:
[1] = system: Staphylococcus aureus Strain Wood 46 in human polymorphonuclear leucocytes; test: in vitro test on human polymorphonuclear leucocytes and Staphylococcus aureus Strain Wood 46; assay type: cell-based; settings: S. aureus Strain Wood 46
Text: In the in vitro test on human polymorphonuclear leucocytes and Staphylococcus aureus Strain Wood 46, sorangicin A is effective against bacteria that occur intracellularly, e.g. staphylococcae.

[2] = biological target: T1, reverse transcriptase of Moloney Murine leucaemia virus (Moloney murine leukemia virus, UniProt P03355); test: inhibition of reverse transcriptase enzyme; assay type: biochemical; settings: reverse transcriptase of MLV; method of Wu et al.; read-out: ID50 (dose that inhibits the RT activity by 50%) (converted)
T1 construct: reverse transcriptase of Moloney Murine leucaemia virus
Procedure: Proof of the antiviral activity of the compounds of formula I against retroviruses is shown by in vitro and in vivo tests, but especially by an in vitro test system in which the inhibition of the reverse transcriptase enzyme is determined quantitatively by said compounds.
On poly A-oligo (dT), radioactively labelled TPP is hybridised with reverse transcriptase. The […] radioactivity is measured and serves as reference for the activity of the reverse transcriptase.
The ID50 of the compounds of formula I is determined by using them in the test system in different concentrations.
Sorangicin A is active against reverse transcriptase of Moloney Murine leucaemia virus; the ID50 [dose that inhibits the RT activity by 50%; method of Wu et al., Proc. Natl. Acad. Sci., 69, 3820 (1972)] for the reverse transcriptase of MLV is c. 7 μg/ml.

## CC(=CC(C)CCCCC(=O)O)C1OC2C=CC1OC(=O)C=CC=CC=CC1OC3CC1OC(C=CCC1OC(CC(O)C1C)C(O)C(O)C=CCCC=CC2)C3C (stereo not drawn) [sorangicin A]
[1]
  activity against bacteria that occur intracellularly: effective
  activity within leucocytes: bactericidal activity
[2]
  IC50: ~8.67 µM
